Experimental data taken from patent US9278962B2 (Cytokinetics, Inc., priority 2011, dated 2016).

tested on: rabbit skeletal myofibrils (approximately 90% fast fibers); assay: Activation of fast skeletal myofibrils (PUMA coupled-enzyme ATPase assay, AC1.4); assay type: biochemical; conditions: Table 2; concentration at which the compound increased enzymatic activity by 40%; calcium at pCa25

Compound | Mean AC1.4
CN1CCC(CNc2nc(-c3cccc(C(N)=O)c3)ns2)(c2ccc(F)cc2)CC1 [3-[5-({[4-(4-fluorophenyl)-1-methyl-4-piperidyl]methyl}amino)-1,2,4-thiadiazol-3-yl]benzamide] | D (D=>20 uM)
NC(=O)c1cccc(-c2nsc(NCC3(c4ccc(F)cc4)CCNCC3)n2)c1 [3-[5-({[4-(4-fluorophenyl)-4-piperidyl]methyl}amino)-1,2,4-thiadiazol-3-yl]benzamide] | D (D=>20 uM)
Oc1cccc(Cc2nsc(NCCc3cccc(Cl)c3)n2)c1 [3-[(5-{[2-(3-chlorophenyl)ethyl]amino}-1,2,4-thiadiazol-3-yl)methyl]phenol] | B (B=1-10 uM)
CC(C)(CNc1nc(Cc2cccc(O)c2)ns1)c1ccc(Cl)cc1 [3-[(5-{[2-(4-chlorophenyl)-2-methylpropyl]amino}-1,2,4-thiadiazol-3-yl)methyl]phenol] | A (A=<1 uM)
Oc1cccc(Cc2nsc(NCCc3ccc(Cl)cc3)n2)c1 [3-[(5-{[2-(4-chlorophenyl)ethyl]amino}-1,2,4-thiadiazol-3-yl)methyl]phenol] | B (B=1-10 uM)
CC(C)(CNc1nc(Cc2cccc(O)c2)ns1)c1ccc(F)cc1 [3-[(5-{[2-(4-fluorophenyl)-2-methylpropyl]amino}-1,2,4-thiadiazol-3-yl)methyl]phenol] | A (A=<1 uM)
CN(CC(C)(C)c1ccc(F)cc1)c1nc(Cc2cccc(O)c2)ns1 [3-[(5-{[2-(4-fluorophenyl)-2-methylpropyl]methylamino}-1,2,4-thiadiazol-3-yl)methyl]phenol] | D (D=>20 uM)
Oc1ccc(CCNc2nc(Cc3cccc(O)c3)ns2)cc1 [3-[(5-{[2-(4-hydroxyphenyl)ethyl]amino}-1,2,4-thiadiazol-3-yl)methyl]phenol] | D (D=>20 uM)
C[C@@H](CNc1nc(Cc2cccc(O)c2)ns1)c1ccc(F)cc1 [3-[(5-{[(2R)-2-(4-fluorophenyl)propyl]amino}-1,2,4-thiadiazol-3-yl)methyl]phenol] | A (A=<1 uM)
C[C@H](CNc1nc(Cc2cccc(O)c2)ns1)c1ccc(F)cc1 [3-[(5-{[(2S)-2-(4-fluorophenyl)propyl]amino}-1,2,4-thiadiazol-3-yl)methyl]phenol] | A (A=<1 uM)
Oc1cccc(Cc2nsc(NCc3ccc(Cl)c(Cl)c3)n2)c1 [3-[(5-{[(3,4-dichlorophenyl)methyl]amino}-1,2,4-thiadiazol-3-yl)methyl]phenol] | D (D=>20 uM)
Oc1cccc(Cc2nsc(NCc3ccc(Cl)cc3)n2)c1 [3-[(5-{[(4-chlorophenyl)methyl]amino}-1,2,4-thiadiazol-3-yl)methyl]phenol] | D (D=>20 uM)
CC(C)(CNc1nc(-c2ccc(O)cc2Cl)ns1)c1ccc(F)cc1 [3-chloro-4-(5-{[2-(4-fluorophenyl)-2-methylpropyl]amino}(1,2,4-thiadiazol-3-yl))phenol] | A (A=<1 uM)
NC(=O)c1cccc(-c2nsc(NCC(=O)C3CCCCN3)n2)c1 (stereo not shown) [3-{5-[(2-oxo-2-piperidylethyl)amino]-1,2,4-thiadiazol-3-yl}benzamide] | D (D=>20 uM)
N#Cc1cccc(-c2nsc(NCC(=O)C3CCCCN3)n2)c1 (stereo not shown) [3-{5-[(2-oxo-2-piperidylethyl)amino]-1,2,4-thiadiazol-3-yl}benzenecarbonitrile] | D (D=>20 uM)
NC(=O)c1cccc(-c2nsc(NCCc3ccccc3)n2)c1 [3-{5-[(2-phenylethyl)amino]-1,2,4-thiadiazol-3-yl}benzamide] | C (C=10-20 uM)
NC(=O)c1cccc(-c2nsc(NCCCc3ccccc3)n2)c1 [3-{5-[(3-phenylpropyl)amino]-1,2,4-thiadiazol-3-yl}benzamide] | D (D=>20 uM)
CC(C)(CNc1nc(CNCCCO)ns1)c1ccc(F)cc1 [3-{[(5-{[2-(4-fluorophenyl)-2-methylpropyl]amino}-1,2,4-thiadiazol-3-yl)methyl]amino}propan-1-ol] | D (D=>20 uM)
CC(C)(O)CCc1nsc(NCC(C)(C)c2ccc(F)cc2)n1 [4-(5-{[2-(4-fluorophenyl)-2-methylpropyl]amino}(1,2,4-thiadiazol-3-yl))-2-methylbutan-2-ol] | B (B=1-10 uM)
CC(C)(CNc1nc(-c2ccc(C(N)=O)cc2)ns1)c1ccc(F)cc1 [4-(5-{[2-(4-fluorophenyl)-2-methylpropyl]amino}-1,2,4-thiadiazol-3-yl)benzamide] | A (A=<1 uM)
CC(C)(CNc1nc(-c2ccc(O)cc2)ns1)c1ccc(F)cc1 [4-(5-{[2-(4-fluorophenyl)-2-methylpropyl]amino}-1,2,4-thiadiazol-3-yl)phenol] | A (A=<1 uM)
C[C@H](CNc1nc(-c2ccc(C(N)=O)cc2)ns1)c1ccc(F)cc1 [4-(5-{[(2S)-2-(4-fluorophenyl)propyl]amino}-1,2,4-thiadiazol-3-yl)benzamide] | A (A=<1 uM)
COc1cccc(Cc2nsc(NCCc3ccc(S(N)(=O)=O)cc3)n2)c1 [4-[2-({3-[(3-methoxyphenyl)methyl]-1,2,4-thiadiazol-5-yl}amino)ethyl]benzenesulfonamide] | D (D=>20 uM)
NS(=O)(=O)c1ccc(CCNc2nc(Cc3ccc(F)cc3)ns2)cc1 [4-[2-({3-[(4-fluorophenyl)methyl]-1,2,4-thiadiazol-5-yl}amino)ethyl]benzenesulfonamide] | D (D=>20 uM)
Oc1ccc(CCNc2nc(Cc3ccc(F)cc3)ns2)cc1 [4-[2-({3-[(4-fluorophenyl)methyl]-1,2,4-thiadiazol-5-yl}amino)ethyl]phenol] | D (D=>20 uM)
CC(C)(CNc1nc(Cc2ccc(O)cc2)ns1)c1ccc(Cl)cc1 [4-[(5-{[2-(4-chlorophenyl)-2-methylpropyl]amino}-1,2,4-thiadiazol-3-yl)methyl]phenol] | A (A=<1 uM)
CC(C)(CNc1nc(Cc2ccc(O)cc2)ns1)c1ccc(F)cc1 [4-[(5-{[2-(4-fluorophenyl)-2-methylpropyl]amino}-1,2,4-thiadiazol-3-yl)methyl]phenol] | A (A=<1 uM)

same assay, conditions: Table 3; concentration at which the compound increased enzymatic activity by 40%; calcium at pCa25

Compound | Mean AC1.4
NC(=O)c1ccc(-c2nnc(NCC3(c4ncccc4F)CCC3)s2)cc1 [4-(5-((1-(3-fluoropyridin-2-yl)cyclobutyl)methylamino)-1,3,4-thiadiazol-2-yl)benzamide] | D (D=>20 uM)
N#Cc1ccc(-c2nnc(NCC3(c4ncccc4F)CCC3)s2)cc1 [4-(5-((1-(3-fluoropyridin-2-yl)cyclobutyl)methylamino)-1,3,4-thiadiazol-2-yl)benzonitrile] | D (D=>20 uM)
NC(=O)c1ccc(Cl)c(-c2nnc(NC[C@]3(c4ncccc4F)C[C@H](F)C3)s2)c1 [4-chloro-3-(5-((3-fluoro-1-(3-fluoropyridin-2-yl)cyclobutyl)methylamino)-1,3,4-thiadiazol-2-yl)benzamide] | A (A=<1 uM)
N#Cc1ccc(Cl)c(-c2nnc(NC[C@]3(c4ncccc4F)C[C@@H](F)C3)s2)c1 [4-chloro-3-(5-(((cis)-3-fluoro-1-(3-fluoropyridin-2-yl)cyclobutyl)methylamino)-1,3,4-thiadiazol-2-yl)benzonitrile] | B (B=1-10 uM)
N#Cc1ccc(Cl)c(-c2nnc(NC[C@]3(c4ncccc4F)C[C@H](F)C3)s2)c1 [4-chloro-3-(5-(((trans)-3-fluoro-1-(3-fIuoropyridin-2-yl)cyclobutyl)methylamino)-1,3,4-thiadiazol-2-yl)benzonitrile] | A (A=<1 uM)

same assay, conditions: Table 4; concentration at which the compound increased enzymatic activity by 40%; calcium at pCa25

Compound | Mean AC1.4
CC(C)(CNc1nc2c(Cl)cc(C#N)cc2s1)c1ccc(F)cc1 [4-chloro-2-(2-(4-fluorophenyl)-2-methylpropylamino)benzo[d] thiazole-6-carbonitrile] | A (A=<1 uM)
CC(C)(CNc1nc2c(Cl)cc(C(N)=O)cc2s1)c1ccc(F)cc1 [4-chloro-2-(2-(4-fluorophenyl)-2-methylpropylamino)benzo[d] thiazole-6-carboxamide] | A (A=<1 uM)
N#Cc1cc(Cl)c2nc(NCC3(c4ncccc4F)CCC3)sc2c1 [4-chloro-2-((1-(3-fluoropyridin-2-yl)cyclobutyl)methylamino)benzo[d] thiazole-6-carbonitrile] | B (B=1-10 uM)
NC(=O)c1cc(Cl)c2nc(NCC3(c4ncccc4F)CCC3)sc2c1 [4-chloro-2-((1-(3-fluoropyridin-2-yl)cyclobutyl)methylamino)benzo[d] thiazole-6-carboxamide] | A (A=<1 uM)
NC(=O)c1ccc(Cl)c2nc(NC[C@]3(c4ncccc4F)C[C@H](F)C3)sc12 [4-chloro-2-((3-fluoro-1-(3-fluoropyridin-2-yl)cyclobutyl)methylamino)benzo[d] thiazole-7-carboxamide] | B (B=1-10 uM)
CC(C)(CNc1nc2c(Cl)cccc2s1)c1ccc(F)cc1 [4-chloro-N-(2-(4-fluorophenyl)-2-methylpropyl)benzo[d]thiazol-2-amine] | A (A=<1 uM)
CC(C)(CNc1nc2c(C#N)cc(C(N)=O)cc2s1)c1ccc(F)cc1 [4-cyano-2-(2-(1-fluorophenyl)-2-methylpropylamino)benzo[d] thiazole-6-carboxamide] | A (A=<1 uM)
N#Cc1cc(C(N)=O)cc2sc(NCC3(c4ncccc4F)CCC3)nc12 [4-cyano-2-((1-(3-fluoropyridin-2-yl)cyclobutyl)methylamino)benzo[d] thiazole-6-carboxamide] | A (A=<1 uM)

same assay, conditions: Table 5; concentration at which the compound increased enzymatic activity by 40%; calcium at pCa25

Compound | Mean AC1.4
Cn1nc(NC2(c3ncccc3F)CCC2)nc1-c1cc(C(N)=O)ccc1F [4-fluoro-3-(5-(1-(3-fluoropyridin-2-yl)cyclobutylamino)-2-methyl-2H-1,2,4-triazol-3-yl)benzamide] | D (D=>20 uM)
Cn1nc(NC2(c3ncccc3F)CCC2)nc1-c1cc(C#N)ccc1F [4-fluoro-3-(5-(1-(3-fluoropyridin-2-yl)cyclobutylamino)-2-methyl-2H-1,2,4-triazol-3-yl)benzonitrile] | D (D=>20 uM)
NC(=O)c1ccc(F)c(-c2nnc(NC3(c4ncccc4F)CCC3)[nH]2)c1 [4-fluoro-3-(5-(1-(3-fluoropyridin-2-yl)cyclobutylamino)-4H-1,2,4-triazol-3-yl)benzamide] | D (D=>20 uM)
